These are literature values, as cited in US8697660B2, “Compounds and compositions for treating infection” (International Patent Holdings LLC, priority 2011, dated 2014).

The test system of the data set is HIV-1.

In the case of Prunellin, the “minimum inhibition concentration against HIV-1 in vitro” value was 2.2 µg/mL.
